Calls of active or inactive are those of the source. No cut-off for these calls is given here.
Key:
Assay type in all cases: functional, organism-based
Details in all cases: dose 0-100 µg/ml
Staphylococcus aureus [1] = test: Antivirulence activity against methicillin-resistant Staphylococcus aureus USA300 LAC assessed as inhibition of phenol-soluble modulin alpha1-4 production incubated for 22 hrs by LC-MS analysis
Staphylococcus aureus [2] = test: Antivirulence activity against methicillin-resistant Staphylococcus aureus USA300 LAC assessed as inhibition of delta toxin production incubated for 22 hrs by LC-MS analysis
Staphylococcus aureus [3] = test: Antivirulence activity against methicillin-resistant Staphylococcus aureus USA300 LAC assessed as inhibition of biofilm formation incubated for 22 hrs by crystal violet staining based assay

SMILES	Activity (Staphylococcus aureus [1])	Activity (Staphylococcus aureus [2])	Activity (Staphylococcus aureus [3])
COC(=O)[C@H]1O[C@@H](Oc2cccc3c2C(=O)c2ccc4c(c2C3=O)C(=O)C[C@@H](C)C4)[C@H](O)[C@@H](O)[C@@H]1O	Dose-Dependent Effect	Dose-Dependent Effect	Dose-Dependent Effect
C[C@@H]1CC(=O)c2c(ccc3c2C(=O)c2cccc(O[C@@H]4O[C@H](C(=O)O)[C@@H](O)[C@H](O)[C@H]4O)c2C3=O)C1	Dose-Dependent Effect	Dose-Dependent Effect	Dose-Dependent Effect
COC(=O)[C@H]1O[C@@H](Oc2cccc3c2C(=O)O[C@H]3c2c(O)ccc3c2C(=O)C[C@@H](C)C3)[C@H](O)[C@@H](O)[C@@H]1O	inactive	inactive	inactive

— ChEMBL document CHEMBL5390205, “Acidonemycins A-C, Glycosylated Angucyclines with Antivirulence Activity Produced by the Acidic Culture of Streptomyces indonesiensis” (J Nat Prod, 2023)
